According to patent US9351951B2, “Prevention of proteomic and genomic damage by dicarbonyl substrates of Glo 1” (University of Warnick, priority 2010, dated 2016):

Assays:
Glo1 [1] = assay: Glo1 mRNA by real-time RT-PCR in cultured cells; format: cell-based, human; conditions: for induction of Glo1 expression: known nrf2 activators, data not shown
Experimental: (§1) Cell Culture Human hepatoma HepG2 cells and human BJ fibroblasts were cultured in Eagle's Minimum Essential Medium (MEM) medium with 10% foetal calf serum (FCS) and 2 mM glutamine under an atmosphere of 5% CO2 in air, 100% humidity and 37° C. Where sulforaphane was used, the R-stereoisomer was used. R-Sulforaphane (SFN) and allyl isothiocyanate (AITC) were purchased from Sigma-Aldrich (Poole, Dorset, UK).
Real-Time PCR Total RNA was extracted from cultured cells which were treated with SFN, AITC using RNeasy Mini Kit (QIAGEN). cDNAs were synthesized with oligo (dT)18 primer and BioScript reverse transcriptase (BIOLINE). Human GLO1 and ACTB (β-actin reference gene) mRNA were quantified by real-time RT-PCR SYBR green method on ABI 7500 fast real-time PCR system. The following primers were used to amplify GLO1, forward 5′-[…]-3′ (SEQ ID NO: 5) and reverse 5′-[…]-3′ (SEQ ID NO: 6). The reference gene ACTB was amplified with primers 5′-[…]-3′ SEQ ID NO: 7)(forward) and 5′-[…]-3′ (SEQ ID NO: 8)(reverse).

HepG2 cells [2] = assay: Frameshift mutation-dependent GFP reporter in HepG2 cells; format: cell-based, human; conditions: 400 μM MG
Experimental: The pEGFP-CA/T12 vector is a reporter for efficiency of transfection while pEGFP-CA13 vector is a reporter of frameshift mutation induced by MG.^30 HepG2 cells (2×10^5 cells/well) were cultured in 12-well plates for 24 h, the MEM medium removed, the cells washed with serum free medium and replaced with DNA/lipofectamine complexes in serum free medium—transfection medium (Lipofectamine 2000 reagent, 2 μl; (1.8 μg pEGFP-CA13 or pEGFP-CA/T12; 2.0 ml serum free medium)—and incubated for 5 h at 37° C. The transfection medium was removed and replaced with complete MEM medium supplemented with 10% FCS and 2 mM glutamine) and incubated for 48 h. Transfection efficiency was assessed quantitatively by flow cytometry. […] Thereafter, cells were washed with phosphate-buffered saline (PBS) and analysed for GFP expression by flow cytometry.

HepG2 cells [3] = assay: Growth inhibition of HepG2 cells by MG; format: cell-based; conditions: Homo sapiens, n=8, read-out: median growth inhibitory concentration
Glo1 [4] = conditions: 2 μM SFN, over 16 h, BJ fibroblasts
Experimental: as §1

BJ fibroblasts [5] = assay: cells; conditions: Homo sapiens, Fibroblast, 24 h, read-out: cell viability during exposure to hydrogen peroxide
HMEC-1 endothelial cells = conditions: collagen conditioned with medium from BJ cells incubated with 2 μM SFN for 24 h
Experimental: The culture medium was then removed, incubated with human type IV collagen for 24 h and human microvascular endothelial HMEC-1 cell attachment studied as described^13a. […] The medium was then removed and added to wells of a 96-well plate (96-well; Costar; Corning) that had be prior coated type IV collagen. For the coating, 100-□l of 100 µg/ml of type IV collagen (human placental, type IV, pepsin extracted) was added to each well and incubated for 24 h at 37° C. Wells were then washed with phosphate buffered saline. Collagen coated wells were incubated with medium from BK cell cultures for 24 h at 37° C. and then washed with phosphate buffered saline. HMEC-1 endothelial cells (2.5×10^4 cells/well) were plated on to the collagen substrates and incubated for 1 h at 37° C. Non-adherent cells were removed and adherent cells were quantified by staining with 3-(4,5-dimethylthiazole-2-yl)-2,5-diphenyltetrazolium bromide, lysed with dimethylsulfoxide and the blue formazan product detected, by absorbance at 560 nm (Paul, R G, Bailey, A J: The effect of advanced glycation end-product formation upon cell-matrix interactions. Int J Biochem Cell Biol 31: 653-660, 2004).

GLO1 promoter (ARE1) = conditions: ARE1 alone, HepG2 cells, 4 μM SFN 24 h
Experimental: Transfection and Luciferase Assay of Custom Vectors For luciferase assays, 2×10^5 HepG2 cells per well were plated into 24-well plates and cultured overnight. The cells were transfected with 0.5 μg reporter vector and 10 ng pRL-TK plasmid using Lipofectamine 2000 according to manufacture's protocol. The empty pGL3-basic vector was used as control. After 24 h, 4 μM SFN was added to the cells and vehicle (DMSO) added to control. After 24 h, the cells were washed with PBS and luciferase activity assay performed immediately or samples stored at −80° C. until analysis. For the reporter assay, 100 μl Cell Culture Lysis Reagent (CCLR, Promega) was added to cell extracts and shaken gently for 30 min. The activity mixture was centrifuged (12,000 g, 5 min, 4° C.) and an aliquot (20 μl) of supernatant used in the reporter assay. The luciferase activity was determined using a Dual Luciferase Reporter Assay System (Promega). The relative luciferase activities were normalized by co-transfection of pRL-TK vector.

BJ fibroblasts [6] = test system: BJ fibroblasts
From the text: Normal ageing may be modelled in human cells in vitro by cell senescence.

BJ fibroblasts [7] = conditions: 2 μM SFN, after 48 h
HepG2 cells [8] = conditions: 2 μM SFN
Experimental: (§2) Other Methods. Activity of Glo1 was determined by measuring the initial rate of isomerisation of the hemithioacetal formed from methylglyoxal and GSH to S-D-lactoylglutathione followed spectrophotometrically at 240 nm.^43 The concentration of MG in cells and culture medium was determined by stable isotopic dilution analysis liquid chromatography with tandem mass spectrometric detection.^4 ROS formation was assessed with dichlorodihydrofluorescein diacetate (H2DCFDA), monitoring the generation of dichlorofluorescein (DCF) fluorescence. HepG2 cells and BJ fibroblasts were incubated with H2DCFDA for 30 min, washed in PBS and DCF fluorescence quantified by flow cytometry.^44

methylglyoxal = conditions: 24 h post-treatment
Experimental: as §2

BJ fibroblasts [9] = conditions: scavenging of MG; reference 28; cited from earlier work
in vitro = conditions: human, BJ fibroblasts

CC(C)(C)c1cc(O)ccc1O [tert-butylhydroquinone]
induction of Glo1 expression (Glo1 [1]): not potent inducers

CC(=O)C=O [MG, methylglyoxal]
frameshift mutation-dependent GFP (HepG2 cells [2]): increased
frameshift mutations (HepG2 cells [2]): increased
IC50 (HepG2 cells [3]): 1070 ± 80 µM

C=CCSSCC=C [diallyldisulphide]
induction of Glo1 expression (Glo1 [1]): not potent inducers

C[S@@+]([O-])CCCCN=C=S [SFN, R-Sulforaphane]
Glo1 protein (Glo1 [4]): increase in Glo1 protein progressively
viability at 0.5 µM (BJ fibroblasts [5]): 88%
HMEC-1 endothelial cell adhesion to type IV collagen (HMEC-1 endothelial cells): Improved
time post-treatment at which Glo1 mRNA maximised (Glo1 [1]; 2 μM SFN time course, BJ fibroblasts): 12 h
Glo1 mRNA (Glo1 [1]; dose response, BJ fibroblasts): dose-dependent increase
Glo1 transcriptional response of luciferase reporter (GLO1 promoter (ARE1)): maximal induction
effect on Hayflick limit (BJ fibroblasts [6]; BJ cells, 1.0 μM SFN per passage from cumulative PDL 30): allowed escape from the Hayflick limit
Hayflick limit, cumulative PDL (BJ fibroblasts [6]; BJ cells, 2×0.5 μM SFN per passage from cumulative PDL 45, control limit PDL 49): 50.5
increase in cell number per passage (BJ fibroblasts [6]; BJ fibroblasts, 1.0 μM SFN per passage, beyond cumulative PDL 53): > 3 fold
cellular protein MG-H1 residue content (BJ fibroblasts [7]): decrease
endogenous ROS (HepG2 cells [8]): decrease
ROS induced by exogenous hydrogen peroxide (HepG2 cells [8]; 20 μM hydrogen peroxide): decrease
concentration of methylglyoxal in the cell culture (methylglyoxal; HepG2 culture medium): marked decrease
concentration of MG in cells (methylglyoxal; BJ fibroblasts, 2 μM SFN): decreased concentration
concentration of MG in the cell culture medium (methylglyoxal; BJ fibroblasts, 2 μM SFN): decreased concentration

OCc1c[nH]c2ccccc12 [indole-3-carbinol]
induction of Glo1 expression (Glo1 [1]): not potent inducers

C=CCN=C=S [AITC, allyl isothiocyanate]
frameshift mutations induced by MG (HepG2 cells [2]; prior 2 μM AITC): prevented
frameshift mutation-dependent GFP induced by MG (HepG2 cells [2]; prior exposure to 2 μM AITC): prevented

N=C(N)NN [aminoguanidine]
effect on cytotoxicity induced by exogenous hydrogen peroxide in vitro (BJ fibroblasts [9]): protective

OO [hydrogen peroxide]
viability at 200 μM (in vitro): 74%
